The subject of experiment [1] is Eμ-Mycp19^Arf−/− mouse lymphoma cells. As to the kind of experiment: Drug treatment and FACS viability (propidium iodide) to determine LD80-90. Type of experiment: cell-based. To be noted: concentration at which 80-90% of uninfected lymphoma cells were killed, lowest viability of 24, 48 and 72 h between 10% and 20%; for IC (80-90): Mus musculus, read-out: Concentration used (LD80-90).

In another experiment the test system is Bim. As to the kind of experiment: Bim expression level by western blot. Type of experiment: cell-based, mouse. To be noted: lymphoma cells treated for 6 or 9 hours. (Immunoblotting shows a protein as a band on a membrane.)
Experiment [2] deals with Eμ-Mycp19^Arf−/− lymphoma cells expressing shRNAs targeting the Bcl2 family, p53 and its activating kinases. As to the kind of experiment: 29-shRNA GFP competition assay, resistance index (RI), clustering and K-nearest-neighbors. Type of experiment: cell-based, mouse.
Experiment [3] concerns cells expressing shTopoI or shTopoII. As to the kind of experiment: shTopoI and shTopoII response signatures. Type of experiment: cell-based, mouse. The note with it: FIG. 3d.
The subject of experiment [4] is shTopoII, shTopoI or vector control-expressing cells. As to the kind of experiment: Long-term survival assay, surviving cells 12 days after drug treatment. Type of experiment: cell-based. An excerpt: Identification and functional characterization of ill-defined genotoxic drugs. […] (3b) The shATM-Chk2-p53 response signature for apigenin (APG) and NSC3852 (NSC). (3c) The branching pattern for the 18 reference compounds plus APG and NSC. APG clusters with the TopoII poisons Dox and VP-16, whereas NSC clusters with the Topol poison CPT. (3d) A comparison of the shTopoI and shTopoII response signatures for APG and NSC3852 with response signatures derived from established Topol (CPT and CPT11) and TopoII poisons (Dox, Mito and VP-16). […] In each case, one million cells were plated before treatment. Data shown are mean±s.e.m. from three Independent experiments.

The subject of experiment [5] is lymphoma cells expressing shATM, shChk2 or shp53. As to the kind of experiment: shATM-Chk2-p53 resistance signature. Type of experiment: cell-based, mouse. To be noted: suppression of ATM, Chk2 and p53. How it is done: (3d) A comparison of the shTopoI and shTopoII response signatures for APG and NSC3852 with response signatures derived from established Topol (CPT and CPT11) and TopoII poisons (Dox, Mito and VP-16). […] In each case, one million cells were plated before treatment.
Eμ-Mycp19^Arf−/− cells were counted and seeded at 1 million cells per ml in 48-well plates and treated with various concentrations of drugs. To approximate therapeutic situations in which drug dose decreases over time, half of the volume from each experiment was removed and replenished with fresh medium every 24 h. Cells were analyzed by fluorescence-activated cell sorting (FACS), with propidium iodide as a viability marker. LD80-90 of drugs are defined as concentrations at which the lowest viability reading out of three FACS time points (24, 48 and 72 h) is between 10% and 20%. After drug dose was determined, Eμ-Mycp19^Arf−/− cells were infected with retroviruses encoding shRNAs targeting particular genes. Individual infected cell populations were counted and seeded at 1 million cells per ml in 48-well plates and treated with drugs using the aforementioned protocol. At 72 h, treated and untreated cells were analyzed by flow cytometry. GFP percentages of live (PI-negative) cells were recorded and used to calculate relative resistance index.
To compare the relative level of chemoresistance and sensitization conferred by each gene knockdown, the concept of RI (see definition above) was introduced, to more accurately analyze the GFP competition results. The value of RI is defined as X. The biological meaning of this factor X is that in a mixture of uninfected and infected (knockdown) cells, the infected (knockdown) cells will be X-fold as likely to survive drug treatment when compared to uninfected cells. By this definition of X, if one out of n uninfected cells survives a drug treatment, then X our of n infected cells should survive. If the total number of uninfected and infected cells are defined as T and the GFP percentage of untreated population are defined as G1, then the number of surviving, uninfected cells (un) can be defined as n−un=T×(1−G1)×1/n, and the number of surviving, infected cells (in) can be defined as n−in=Tx G1×X/n. […] From this equation, it can be derived that X=(G2−G1×G2)/(G1−G1×G2). This equation was used in the studies to compute RI values.

In the next experiment the test system is γ-H2AX. As to the kind of experiment: DNA damage response by western blot (γ-H2AX phosphorylation) in TopoI and TopoII knockdown cells. Type of experiment: cell-based.

Protocol for Bim: 9b, Lymphoma cells were treated with SAHA or DAC for 6 or 9 hours. Bim expression level was analyzed by western blot.

Regarding `O=C(CCCCCCC(=O)Nc1ccccc1)NO` [Vorinostat, suberoylanilide hydroxamic acid], the IC (80-90) in experiment [1] amounted to 0.2 µM. Moreover, the “levels of the proapoptotic BH3-only protein Bim” value with Bim is given as “increase”. Further, the log2RI entry in experiment [2] (shRNA targeting Bim (Bim-dependence)) is on record as “≈ 2”; in experiment [2] (shRNA targeting p53 (p53-independence)) it was “≈ 0”. In addition, in experiment [2] (shRNA targeting Chop, FIG. 1d), the “effect of suppression of the Bim transcription regulator Chop on drug response” value was “resistance”.
Take `O=c1cc(-c2ccc(O)cc2)oc2cc(O)cc(O)c12` [Apigenin]: in experiment [3], the “shTopoI and shTopoII resistance and sensitivity pattern” value was “shTopoII resistance and shTopoI sensitivity”. In experiment [1], the IC (80-90) stood at 0.1 µM. Further, the long-term survival entry in experiment [4] (TopoII deficiency) is listed as “significant protection”. The shATM-Chk2-p53 resistance signature result in experiment [5] is listed as “strong shATM-Chk2-p53 resistance signature”. Moreover, the “induction of DNA damage” value in the experiment on γ-H2AX (TopoII-deficient cells) is reported as “failed to induce DNA damage”.
As to `O=Nc1ccc(O)c2ncccc12` [NSC3852], the “shTopoI and shTopoII resistance and sensitivity pattern” value in experiment [3] was “characteristic pattern of resistance, similar to established TopoI poisons camptothecin and irinotecan”. In addition, in experiment [1], the “Concentration used (LD80-90)” value is 1.7 µM. Besides, in experiment [4] (TopoI deficiency), the long-term survival result was “significantly protected”. Besides, the shATM-Chk2-p53 resistance signature entry in experiment [5] is given as “strong shATM-Chk2-p53 resistance signature”. Further, the “induction of DNA damage” value in the experiment on γ-H2AX (TopoI-deficient cells) is recorded as “failed to induce DNA damage”.

Source of the values: patent publication US9683231B2, “RNAi-based method of drug screening and characterization” (Massachusetts Institute of Technology, priority 2010, dated 2017).
